{
  "source": "patent US20230285278A1",
  "about": "“METHODS FOR TREATING CHRONIC RHINOSINUSITIS” (OptiNose, Inc., priority 2022, published 2023)",
  "origin": "cited, not measured here",
  "note": "Where two headings read alike, the source gives them in different places.",
  "data": [
    {"smiles": "CCC(=O)O[C@]1(C(=O)SCF)[C@H](C)C[C@H]2[C@@H]3C[C@H](F)C4=CC(=O)C=C[C@]4(C)[C@@]3(F)[C@@H](O)C[C@@]21C", "note": "[Fluticasone propionate, S-(fluoromethyl) 6α,9-difluoro-11β,17-dihydroxy-16α-methyl-3oxoandrosta-1,4-diene-17β-carbothioate, 17-propionate]", "values": [
      {"measurement": "Solubility", "setting": "in 96% ethanol", "value": "slightly soluble"},
      {"measurement": "Solubility", "setting": "in acetone", "value": "sparingly soluble"},
      {"measurement": "Solubility", "setting": "in dichloromethane", "value": "sparingly soluble"},
      {"measurement": "Solubility", "setting": "in dimethylformamide", "value": "freely soluble"},
      {"measurement": "Solubility", "setting": "in water", "value": "practically insoluble"}
    ]}
  ]
}
